This is an account of results in patent US20230183239A1, “ECTONUCLEOTIDE PYROPHOSPHATASE-PHOSPHODIESTERASE 1 (ENPP-1) INHIBITORS AND USES THEREOF” (AbbVie Inc., priority 2017, published 2023).

The test addresses T1, ENPP1 (Homo sapiens, UniProt P22413).
T1 sequence (P22413 1-925): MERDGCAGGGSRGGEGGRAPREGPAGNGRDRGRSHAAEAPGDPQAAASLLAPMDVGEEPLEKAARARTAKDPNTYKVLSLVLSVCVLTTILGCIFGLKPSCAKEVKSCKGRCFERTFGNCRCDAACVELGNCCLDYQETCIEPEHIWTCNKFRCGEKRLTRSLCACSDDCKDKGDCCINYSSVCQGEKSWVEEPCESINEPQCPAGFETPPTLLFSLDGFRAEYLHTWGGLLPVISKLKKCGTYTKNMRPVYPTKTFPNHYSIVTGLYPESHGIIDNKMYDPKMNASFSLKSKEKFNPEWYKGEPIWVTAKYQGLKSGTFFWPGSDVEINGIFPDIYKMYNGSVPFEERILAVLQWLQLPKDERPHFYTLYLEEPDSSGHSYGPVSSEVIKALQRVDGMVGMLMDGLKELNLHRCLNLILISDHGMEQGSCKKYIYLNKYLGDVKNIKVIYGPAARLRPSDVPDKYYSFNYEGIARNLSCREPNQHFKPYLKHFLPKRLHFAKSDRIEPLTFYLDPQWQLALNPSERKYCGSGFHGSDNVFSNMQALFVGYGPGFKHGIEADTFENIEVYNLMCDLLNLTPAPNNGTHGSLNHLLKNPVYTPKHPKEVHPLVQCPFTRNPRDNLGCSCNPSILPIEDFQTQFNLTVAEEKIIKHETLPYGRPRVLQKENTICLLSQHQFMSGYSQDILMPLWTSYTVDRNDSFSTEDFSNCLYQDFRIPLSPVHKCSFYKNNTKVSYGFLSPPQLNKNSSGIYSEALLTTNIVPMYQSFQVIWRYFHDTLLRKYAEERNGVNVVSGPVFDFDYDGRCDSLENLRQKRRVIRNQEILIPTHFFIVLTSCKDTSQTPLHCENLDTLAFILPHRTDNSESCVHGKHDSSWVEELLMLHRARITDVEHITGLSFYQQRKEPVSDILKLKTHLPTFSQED
The test is described as follows: Indirect quantitation of 2',3'-cGAMP hydrolysis (AMP-Glo Assay kit). As to conditions: cGAMP substrate; Ki from IC50 by Cheng-Prusoff; read-out: ENPP1 Inhibition -cGAMP: Ki. Type of test: biochemical.

For `COc1ccc(S(=O)(=O)N2CCN(CCO)CC2)cc1OC` [Example 340, 2-(4-((3,4-dimethoxyphenyl)sulfonyl)piperazin-1-yl)ethan-1-ol], the Ki was > 1000 nM.

As for `COc1ccc2c(-c3ccc4c(c3)CN(S(N)(=O)=O)CC4)c(C(F)(F)F)cnc2c1` [Example 408, 7-(7-methoxy-3-(trifluoromethyl)quinolin-4-yl)-3,4-dihydroisoquinoline-2(1H)-sulfonamide], the Ki was in the range of 100 to 1000 nM.

Take `COc1cc2ncnc(N3CCC(CCNS(=O)(=O)c4ccccn4)CC3)c2cc1OC` [Example 155, N-(2-(1-(6,7-dimethoxyquinazolin-4-yl)piperidin-4-yl)ethyl)pyridine-2-sulfonamide]: the Ki is 100 to 1000 nM. The result for `COc1cc2ncnc(N3CCC(CCNS(C)(=O)=O)CC3)c2cc1OC` [Example 338, N-(2-(1-(6,7-dimethoxyquinazolin-4-yl)piperidin-4-yl)ethyl)methanesulfonamide] reads 100 to 1000 nM; that for `COc1ccc2c(c1)OCCC2Oc1ccc(NS(N)(=O)=O)cc1` (stereo not drawn) [Example 399, (4-((7-methoxychroman-4-yl)oxy)phenyl)sulfamide], > 1000 nM.

Turning to `COc1ccc2c(-c3ccc4c(c3)CNCC4)c(C#N)cnc2c1` [Example 276, 7-methoxy-4-(1,2,3,4-tetrahydroisoquinolin-7-yl)quinoline-3-carbonitrile], the Ki is > 1000 nM.

Turning to `COc1ccc2c(Oc3ccc4c(c3)CCC(=O)N4)ccnc2c1` [Example 318, 6-((7-methoxyquinolin-4-yl)oxy)-3,4-dihydroquinolin-2(1H)-one], the Ki is > 1000 nM. The result for `COc1ccc2nccc(-c3ccc4c(c3)CN(S(N)(=O)=O)CC4)c2c1` [Example 358, 7-(6-methoxyquinolin-4-yl)-3,4-dihydroisoquinoline-2(1H)-sulfonamide] reads < 100 nM. Regarding `COc1ccc2c(-n3cc(CNS(N)(=O)=O)cn3)ccnc2c1` [Example 414, N-((1-(7-methoxyquinolin-4-yl)-1H-pyrazol-4-yl)methyl)sulfamide], the Ki is 100 to 1000 nM. With `COc1ccc2c(Oc3ccc(N(C)S(N)(=O)=O)cc3)ccnc2c1` [Example 77, N-(4-((7-methoxyquinolin-4-yl)oxy)phenyl)-N-methylsulfamide] the figure was < 100 nM; with `COc1ccc2c(-c3ccc(CNS(N)(=O)=O)cc3C)ccnc2c1` [Example 328, N-(4-(7-methoxyquinolin-4-yl)-3-methylbenzyl)sulfamide], 100 to 1000 nM.

For the compound `COc1cc2nccc(N(C)Cc3ccc(NS(N)(=O)=O)cc3)c2cc1OC` [Example 255, N-(4-(((6,7-dimethoxyquinolin-4-yl)(methyl)amino)methyl)phenyl)s ulfamide], the Ki was > 1000 nM.

Consider `COc1ccc2c(Oc3ccc(S(N)(=O)=O)cc3)c(C#N)cnc2c1` [Example 327, 4-((3-cyano-7-methoxyquinolin-4-yl)oxy)benzenesulfonamide], for which the inhibition constant (Ki) is < 100 nM. The result for `COc1cc2ncc(-c3ccc4c(c3)CN(S(N)(=O)=O)CC4)nc2cc1OC` [Example 295, 7-(6,7-dimethoxyquinoxalin-2-yl)-3,4-dihydroisoquinoline-2(1H)-sulfonamide] reads > 1000 nM. `COc1ccc(NC(=O)C2CCC(CNS(N)(=O)=O)CC2)cc1OC` (stereo not drawn) [Example 133, N-(3,4-dimethoxyphenyl)-4-((sulfamoylamino)methyl)cyclohe xane-1-carboxamide]: the Ki is > 1000 nM. With `COc1ccc(S(=O)(=O)N2CCN(CCNS(N)(=O)=O)CC2)cc1OC` [Example 152, N-(2-(4-((3,4-dimethoxyphenyl)sulfonyl)piperazin-1-yl)ethyl)sulfamide] the figure was > 1000 nM; with `COc1ccc2c(=O)n(Cc3ccc(S(N)(=O)=O)cc3)cnc2c1` [Example 400, 4-((7-methoxy-4-oxoquinazolin-3(4H)-yl)methyl)benzenesulfonamide], > 1000 nM. With `NS(=O)(=O)NCCC1CCN(c2ccnc3cc4c(cc23)OCO4)CC1` [Example 215, N-(2-(1-([1,3]dioxolo[4,5-g]quinolin-8-yl)piperidin-4-yl)ethyl)sulfamide], the Ki was > 1000 nM. With `COc1cc2ncnc(N3CCC(CNc4nc5ccccc5[nH]4)CC3)c2cc1OC` [Example 251, N-((1-(6,7-dimethoxyquinazolin-4-yl)piperidin-4-yl)methyl)-1H-benzo[d]imidazol-2-amine] the figure was > 1000 nM; with `COc1ccc2c(N3CCc4ccc(NS(N)(=O)=O)cc43)ccnc2c1` [Example 391, N-(1-(7-methoxyquinolin-4-yl)indolin-6-yl)sulfamide], > 1000 nM; with `COc1cc2ncnc(Nc3ccc(CNS(N)(=O)=O)cc3)c2cc1OC` [Example 234, N-(4-((6,7-dimethoxyquinazolin-4-yl)amino)benzyl)sulfamide], > 1000 nM. With `COc1cc2ncnc(N3CCC(CCNS(=O)(=O)c4ccccc4)CC3)c2cc1OC` [Example 116, N-(2-(1-(6,7-dimethoxyquinazolin-4-yl)piperidin-4-yl)ethyl)benzenesulfonamide] the figure was > 1000 nM; with `COc1ccc2c(Oc3cc(F)c(NS(N)(=O)=O)cc3F)ccnc2c1` [Example 79, N-(2,5-difluoro-4-((7-methoxyquinolin-4-yl)oxy)phenyl)sulfamide], < 100 nM; with `COc1cc2c(cc1OC)N(Cc1ccc(NS(N)(=O)=O)cc1)C(=O)CC2` [Example 173, N-(4-((6,7-dimethoxy-2-oxo-3,4-dihydroquinolin-1 (2H)-yl)methyl)phenyl) sulfamide], > 1000 nM. The result for `COc1cc2cnn(-c3ccc(CNS(N)(=O)=O)cc3)c2cc1OC` [Example 166, N-(4-(5,6-dimethoxy-1H-indazol-1-yl)benzyl)sulfamide] reads 100 to 1000 nM. In the case of `COc1ccc2c(Oc3ccc(NS(N)(=O)=O)cn3)ccnc2c1` [Example 320, N-(6-((7-methoxyquinolin-4-yl)oxy)pyridin-3-yl)sulfamide], the inhibition constant Ki was < 100 nM. With `COc1ccc2c(Oc3ccc(NS(N)(=O)=O)c(OC)c3)ccnc2c1` [Example 78, N-(2-methoxy-4-((7-methoxyquinolin-4-yl)oxy)phenyl)sulfamide] the figure was < 100 nM. Take `COc1cc2ncnc(N3CCC(CCNS(=O)(=O)NC(C)C)CC3)c2cc1OC` [Example 142, 2-(1-(6,7-dimethoxyquinazolin-4-yl)piperidin-4-yl)ethan-1-amino(N-prop-2-yl)sulfonamide]: the Ki was > 1000 nM. The result for `NC(=O)c1ccc2nccc(N3CCC(CCNS(N)(=O)=O)CC3)c2c1` [Example 192, 4-(4-(2-(sulfamoylamino)ethyl)piperidin-1-yl)quinoline-6-carboxamide] reads > 1000 nM; that for `COc1ccc(-c2cc(N3CCC(NS(N)(=O)=O)CC3)ncn2)cc1OC` [Example 36, N-(1-(6-(3,4-dimethoxyphenyl)pyrimidin-4-yl)piperidin-4-yl)sulfamide], > 1000 nM; that for `COc1cc2ncc(Oc3ccc(NS(N)(=O)=O)cc3)nc2cc1OC` [Example 280, N-(4-((6,7-dimethoxyquinoxalin-2-yl)oxy)phenyl)sulfamide], > 1000 nM.

Take `CNC(=O)c1ccc2c(N3CCC(CCNS(N)(=O)=O)CC3)ncnc2c1` [Example 163, N-methyl-4-(4-(2-(sulfamoylamino)ethyl)piperidin-1-yl)quinazoline-7-carboxamide]: the Ki was > 1000 nM.

For the compound `COc1cc2ccn(-c3ccc(CNS(N)(=O)=O)cc3)c2cc1OC` [Example 186, N-(4-(5,6-dimethoxy-1H-indol-1-yl)benzyl)sulfamide], the Ki was > 1000 nM. Consider `COc1cc2c(=O)ccn(Cc3ccc(NS(N)(=O)=O)cc3)c2cc1OC` [Example 151, N-(4-((6,7-dimethoxy-4-oxoquinolin-1 (4H)-yl)methyl)phenyl) sulfamide], for which the Ki was < 100 nM.

In the case of `COc1cc2ncc(-c3ccc(CNS(N)(=O)=O)cc3)nc2cc1OC` [Example 278, N-(4-(6,7-dimethoxyquinoxalin-2-yl)benzyl)sulfamide], the Ki was > 1000 nM. Consider `COc1cc2ncnc(-c3ccc(NS(N)(=O)=O)cc3)c2cc1OC` [Example 113, N-(4-(6,7-dimethoxyquinazolin-4-yl)phenyl)sulfamide], for which the Ki was in the range of 100 to 1000 nM. With `COc1ccc2c(Oc3ccc(NS(N)(=O)=O)c(OC)c3)ccnc2n1` [Example 421, N-(2-methoxy-4-((7-methoxy-1,8-naphthyridin-4-yl)oxy)phenyl)sulfamide], the Ki was < 100 nM.

As for `COc1ccc2c(-c3cc4c(cc3F)CCN(S(N)(=O)=O)C4)ccnc2c1` [Example 409, 6-fluoro-7-(7-methoxyquinolin-4-yl)-3,4-dihydroisoquinoline-2(1H)-sulfamide], the Ki is > 1000 nM. Consider `CNC(=O)c1cc(Oc2ccc(NS(N)(=O)=O)cc2)ccn1` [Example 127, N-methyl-4-(4-(sulfamoylamino)phenoxy)picolinamide], for which the Ki is > 1000 nM.

As a reminder, the Ki is the dissociation constant of the complex between target and ligand, obtained from inhibition or displacement.
